Consider 21 molecules from US20260138990A1, “TRICYCLIC FUSED IMIDAZOLE COMPOUNDS AS CD38 MODULATORS AND USES THEREOF” (AEOVIAN PHARMACEUTICALS, INC., priority 2023, published 2026).

The target in one experiment is T1, human CD38 (Homo sapiens, UniProt P28907).
T1 construct: purchased Bio-Techne GmbH AVI2404
T1 sequence (P28907 1-300): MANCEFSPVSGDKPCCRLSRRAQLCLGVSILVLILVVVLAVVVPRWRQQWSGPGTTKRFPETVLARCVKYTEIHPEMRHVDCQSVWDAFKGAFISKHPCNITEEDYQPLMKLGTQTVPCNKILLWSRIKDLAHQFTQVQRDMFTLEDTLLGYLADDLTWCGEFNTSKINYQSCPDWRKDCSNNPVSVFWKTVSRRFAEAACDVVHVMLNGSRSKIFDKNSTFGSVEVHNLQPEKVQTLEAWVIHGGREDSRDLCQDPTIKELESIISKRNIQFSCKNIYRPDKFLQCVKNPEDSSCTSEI
The experiment can be described thus: NAD+ cyclase activity assay with human recombinant CD38 protein (ε-NAD fluorescence). Type of experiment: biochemical. Particulars: 1.9 nM human CD38, substrate ε-NAD, 30 min preincubation, fluorescence 300/410 nm. In a few lines:
(§1)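 Twelve-point threefold compound dilutions were given 30 min at room temperature with 0.6 nM mouse or 1.9 nM human CD38 before […] ε-NAD was added (pH 7.5 HEPES/sucrose/Tween buffer). The rate came from the linear-phase slope of ex 300/em 410 nm fluorescence against vehicle and no-CD38 controls.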

The target in a further experiment is T2, mouse CD38 (Mus musculus, UniProt P56528).
T2 construct: purchased Bio-Techne GmbH 4947-AC
T2 sequence (P56528 1-304): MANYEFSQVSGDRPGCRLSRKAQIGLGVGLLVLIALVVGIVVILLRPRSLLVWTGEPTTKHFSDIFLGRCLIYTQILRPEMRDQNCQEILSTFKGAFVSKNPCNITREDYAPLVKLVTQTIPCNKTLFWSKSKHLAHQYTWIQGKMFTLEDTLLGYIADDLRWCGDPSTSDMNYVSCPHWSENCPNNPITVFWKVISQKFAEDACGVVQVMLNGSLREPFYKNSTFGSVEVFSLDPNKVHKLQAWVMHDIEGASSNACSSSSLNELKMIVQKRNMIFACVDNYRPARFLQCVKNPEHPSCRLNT
Put plainly: NAD+ cyclase activity assay with mouse recombinant CD38 protein (ε-NAD fluorescence). Type of experiment: biochemical. Conditions: 0.6 nM mouse CD38, substrate ε-NAD, 30 min preincubation, fluorescence 300/410 nm. Put shortly: as §1

By IC50 is commonly meant the point on the concentration scale where inhibition reaches its midpoint.

For the molecule `O=C(NC1CCC(F)(F)CC1)c1ccc2c(c1)-c1cncn1CCO2` [Compound 5A, N-(4,4-Difluorocyclohexyl)-5,6-dihydrobenzo[f]imidazo[1,5-d][1,4]oxazepine-10-carboxamide], the IC50 on human CD38 is below 30 nM; on mouse CD38, below 1 nM.
As for `O=C(N[C@H]1CC[C@@H](OC2CC(F)(F)C2)CC1)c1ccc2c(c1)-c1cncn1CCO2` [Compound 153A, N-((1s,4s)-4-(3,3-Difluorocyclobutoxy)cyclohexyl)-5,6-dihydrobenzo[f]imidazo[1,5-d][1,4]oxazepine-10-carboxamide], the values for the IC50 at human CD38 and on mouse CD38 were 100 to 1000 nM and 10 to 100 nM, respectively.
For `O=C(N[C@@H]1CCS(=O)(=O)C1)c1cc(F)c2c(c1)-c1cncn1CCO2` [Compound 132A, (R)—N-(1,1-Dioxidotetrahydrothiophen-3-yl)-8-fluoro-5,6-dihydrobenzo[f]imidazo[1,5-d][1,4]oxazepine-10-carboxamide], in that order: below 30 nM and 1 to 10 nM.
For the molecule `O=C(Nc1ccc2c(c1)OCCO2)c1ccc2c(c1)-c1cncn1CCO2` [Compound 8A, N-(2,3-Dihydrobenzo[b][1,4]dioxin-6-yl)-5,6-dihydrobenzo[f]imidazo[1,5-d][1,4]oxazepine-10-carboxamide], the IC50 on human CD38 is below 30 nM; on mouse CD38 it was 1 to 10 nM.
`O=C(NC1CCC1(F)F)c1cc(F)c2c(c1)-c1cncn1CCO2` (stereo not drawn) [Compound 140A, N-(2,2-Difluorocyclobutyl)-8-fluoro-5,6-dihydrobenzo[f]imidazo[1,5-d][1,4]oxazepine-10-carboxamide]: the values for the concentration for half-maximal inhibition (IC50) on human CD38 and at mouse CD38 were below 30 nM and below 1 nM, respectively.
As for `CS(=O)(=O)N1CCC(NC(=O)c2ccc3c(c2)-c2cncn2CCO3)CC1` [Compound 4A, N-(1-(Methylsulfonyl)piperidin-4-yl)-5,6-dihydrobenzo[f]imidazo[1,5-d][1,4]oxazepine-10-carboxamide], the 50% inhibitory concentration (IC50) on human CD38 is below 30 nM; at mouse CD38, 1 to 10 nM.
Consider `O=C(Nc1cnc2c(c1)OCCO2)c1ccc2c(c1)-c1cncn1CCO2` [Compound 31A, N-(2,3-Dihydro-[1,4]dioxino[2,3-b]pyridin-7-yl)-5,6-dihydrobenzo[f]imidazo[1,5-d][1,4]oxazepine-10-carboxamide], for which the results for the 50% inhibitory concentration (IC50) at human CD38 and at mouse CD38 were below 30 nM and 1 to 10 nM, respectively.
Regarding `O=C(N[C@H]1CC[C@H](OCC(F)(F)F)CC1)c1ccc2c(c1)-c1cncn1CCO2` [Compound 122A, N-((1r,4r)-4-(2,2,2-Trifluoroethoxy)cyclohexyl)-5,6-dihydrobenzo[f]imidazo[1,5-d][1,4]oxazepine-10-carboxamide], the IC50 on human CD38 was below 30 nM; on mouse CD38, 1 to 10 nM.
As to `O=C(N[C@H]1CC[C@@H](OCC(F)(F)F)CC1)c1cc(Cl)c2c(c1)-c1cncn1CCO2` [Compound 158A, 8-Chloro-N-((1s,4s)-4-(2,2,2-trifluoroethoxy)cyclohexyl)-5,6-dihydrobenzo[f]imidazo[1,5-d][1,4]oxazepine-10-carboxamide], the half-maximal inhibitory concentration (IC50) is 30 to 100 nM at human CD38 and 1 to 10 nM on mouse CD38.
The corresponding values for `C[C@H]1CCCC[C@@H]1NC(=O)c1cc(F)c2c(c1)-c1cncn1CCO2` (relative stereo) [Compound 174A, 8-Fluoro-N-(trans-2-methylcyclohexyl)-5,6-dihydrobenzo[f]imidazo[1,5-d][1,4]oxazepine-10-carboxamide] are below 30 nM and below 1 nM.
For `O=C(Nc1cnc(OCCCF)nc1)c1ccc2c(c1)-c1cncn1CCO2` [Compound 102A, N-(2-(3-Fluoropropoxy)pyrimidin-5-yl)-5,6-dihydrobenzo[f]imidazo[1,5-d][1,4]oxazepine-10-carboxamide], in that order: below 30 nM and 1 to 10 nM.
For `O=C(N[C@H]1CC[C@H](OC2CC(F)(F)C2)CC1)c1cc(F)c2c(c1)-c1cncn1CCO2` [Compound 166A, N-((1r,4r)-4-(3,3-Difluorocyclobutoxy)cyclohexyl)-8-fluoro-5,6-dihydrobenzo[f]imidazo[1,5-d][1,4]oxazepine-10-carboxamide], in that order: below 30 nM and 1 to 10 nM.
`COCCO[C@H]1CC[C@H](NC(=O)c2cc3c(c(C4CC4)c2)OCCn2cncc2-3)CC1` [Compound 50A, 8-Cyclopropyl-N-((1r,4r)-4-(2-methoxyethoxy)cyclohexyl)-5,6-dihydrobenzo[f]imidazo[1,5-d][1,4]oxazepine-10-carboxamide]: the half-maximal inhibitory concentration (IC50) is 30 to 100 nM on human CD38 and 1 to 10 nM on mouse CD38.
In the case of `CC(=O)N[C@H]1CC[C@H](NC(=O)c2ccc3c(c2)-c2cncn2CCO3)CC1` [Compound 60A, N-((1r,4r)-4-Acetamidocyclohexyl)-5,6-dihydrobenzo[f]imidazo[1,5-d][1,4]oxazepine-10-carboxamide], the IC50 at human CD38 was 100 to 1000 nM; at mouse CD38 it was 1 to 10 nM.
On to `CS(=O)(=O)c1cc(NC(=O)c2ccc3c(c2)-c2cncn2CCO3)ccc1F` [Compound 21A, N-(4-Fluoro-3-(methylsulfonyl)phenyl)-5,6-dihydrobenzo[f]imidazo[1,5-d][1,4]oxazepine-10-carboxamide], for which the values for the IC50 at human CD38 and on mouse CD38 were below 30 nM and below 1 nM, respectively.
Consider `O=C(N[C@@H]1CCCOC1)c1ccc2c(c1)-c1cncn1CCO2` [Compound 1A, (R)—N-(Tetrahydro-2H-pyran-3-yl)-5,6-dihydrobenzo[f]imidazo[1,5-d][1,4]oxazepine-10-carboxamide], for which the IC50 is below 30 nM at human CD38 and below 1 nM on mouse CD38.
With `CC(C)(CO[C@H]1CC[C@@H](NC(=O)c2cc(F)c3c(c2)-c2cncn2CCO3)CC1)C(F)(F)F` [Compound 168A, 8-Fluoro-N-((1s,4s)-4-(3,3,3-trifluoro-2,2-dimethylpropoxy)cyclohexyl)-5,6-dihydrobenzo[f]imidazo[1,5-d][1,4]oxazepine-10-carboxamide], the IC50 at human CD38 was 100 to 1000 nM; on mouse CD38, above 100 nM.
For `O=C(Nc1cnc(NCC(F)(F)F)nc1)c1ccc2c(c1)-c1cncn1CCO2` [Compound 100A, N-(2-((2,2,2-Trifluoroethyl)amino)pyrimidin-5-yl)-5,6-dihydrobenzo[f]imidazo[1,5-d][1,4]oxazepine-10-carboxamide], in that order: below 30 nM and 1 to 10 nM.
In the case of `COCCO[C@H]1CC[C@H](NC(=O)c2ccc3[nH]c(=O)c4cncn4c3c2)CC1` [Compound 11A, N-((1r,4r)-4-(2-Methoxyethoxy)cyclohexyl)-4-oxo-4,5-dihydroimidazo[1,5-a]quinoxaline-8-carboxamide], the IC50 at human CD38 is above 1000 nM; at mouse CD38 it was above 100 nM.
With `O=C(N[C@H]1CC[C@H](NCC(F)(F)F)CC1)c1ccc2c(c1)-c1cncn1CCO2` [Compound 62A, N-((1r,4r)-4-((2,2,2-Trifluoroethyl)amino)cyclohexyl)-5,6-dihydrobenzo[f]imidazo[1,5-d][1,4]oxazepine-10-carboxamide], the IC50 on human CD38 was below 30 nM; at mouse CD38, 1 to 10 nM.
With `O=C(N[C@H]1CC[C@H](N2CC(F)(F)C2)CC1)c1ccc2c(c1)-c1cncn1CCO2` [Compound 72A, N-((1r,4r)-4-(3,3-Difluoroazetidin-1-yl)cyclohexyl)-5,6-dihydrobenzo[f]imidazo[1,5-d][1,4]oxazepine-10-carboxamide], the IC50 at human CD38 is below 30 nM; on mouse CD38 it was below 1 nM.
